Test results taken from PubChem BioAssay AID2061108 (Research group of Professor Matthew Todd, School of …, 2025).

System: E. coli NCTC 12923 + PMBN growth inhibition, 100 uM
Experiment: microbial growth inhibition plus red cell haemolysis – Idler compounds, first plate, PMBN-permeabilized strains, profiling panel (AID 2061108)
Design: haemolysis: dose or concentration left out as unconfirmed
Settings: S. aureus ATCC 9144 growth inhibition; measured here: E. coli plus PMBN; at 100 µM; stronger effect = higher value

SMILES	inhibition [%]
COC(COc1cncc2nnc(-c3ccc(OC(F)F)cc3)n12)c1ccccc1 (centres undefined)	-28.1
O=C(Cc1ccc(C(F)(F)F)nc1)N1Cc2cccnc2C1	-4.27
COc1cccc(C(=O)Nc2nc3cc(Cl)c(OC)cc3s2)c1	-13.2
O=c1[nH]c(=O)c2cc(S(=O)(=O)Nc3cc(F)c(N4CCN(c5ccccn5)CC4)c(F)c3)ccc2[nH]1	9.51
Cn1nc(C(C)(C)C)cc1NC(=O)Nc1ccc(Cl)cc1	99.4
O=C(Nc1ccccc1)C(Cl)C(=O)c1ccccc1 (centres undefined)	61.4
CC(Nc1ccc2oc(=O)[nH]c2c1)C(=O)Nc1ccccc1C#N (centres undefined)	-6.79
CC1=CC(=O)C=C(C)C1=NOS(=O)(=O)c1ccc(Cl)cc1	-20.5
CC(C)CC(N)C(=O)NS(=O)(=O)c1cccc(-c2cc3ncnc(N)c3s2)c1 (centres undefined)	-22.3
O=C(N1CCCCC1)N1CCCCC1Cc1ccccc1 (centres undefined)	18.1
Cc1ccc(CN2C(=O)NC3(CCN(C(=O)C(C)Oc4ccccc4)CC3)C2=O)cc1 (centres undefined)	22.5

System: C. albicans NCPF 3281 growth inhibition, 100 uM
Experiment: as above
Design: haemolysis: dose or concentration left out as unconfirmed
Settings: S. aureus ATCC 9144 growth inhibition; measured here: C. albicans NCPF 3281; at 100 µM; stronger effect = higher value

SMILES	inhibition [%]
COc1ccc2c(c1)nc(-c1c[nH]c3ccc(N4CCSCC4)cc13)c1[nH]ccc12	95
N#Cc1cc(-c2cccc(Cl)c2)no1	-135
NC(=O)C1CCN(c2nc(OCc3ccc(F)nc3)nc(N3CCn4c(nnc4C(F)(F)F)C3)n2)CC1	-84
Cc1ccc(C)c(N2CCN(C(=O)C3CCN(c4ncnc5c4sc4ncccc45)CC3)CC2)c1	24.6
CCS(=O)(=O)c1ccc(CNc2nc3ccccc3cc2C#N)s1	-73.7
COc1cc2nc(Nc3cc(C)[nH]n3)nc(N3CC(N(C)C)C3)c2cc1OC	13.3
O=C(N/N=C/c1ccc2cccc(O)c2n1)c1ccncc1	-33.7
CC(C)c1cc(Nc2nc(N[C@@H](CO)C3CCCCC3)nc3[nH]ncc23)n[nH]1	-64
O=C(CSc1nc(=O)[nH]c2c1CCC2)c1ccc(Cl)cc1	-110
O=C(Nc1nnc2ccccn12)c1ccc2cccc(Cl)c2n1	25.9
NC(=O)C1CCN(c2nc(OCc3ccc(F)nc3)nc(N3CCCOCC3)n2)CC1	-78.3
COC(COc1cncc2nnc(-c3ccc(OC(F)F)cc3)n12)c1ccccc1 (centres undefined)	-17.3
O=C(Cc1ccc(C(F)(F)F)nc1)N1Cc2cccnc2C1	-94.2
COc1cccc(C(=O)Nc2nc3cc(Cl)c(OC)cc3s2)c1	-74.4
O=c1[nH]c(=O)c2cc(S(=O)(=O)Nc3cc(F)c(N4CCN(c5ccccn5)CC4)c(F)c3)ccc2[nH]1	-115
Cn1nc(C(C)(C)C)cc1NC(=O)Nc1ccc(Cl)cc1	-75.2
O=C(Nc1ccccc1)C(Cl)C(=O)c1ccccc1 (centres undefined)	101
CC(Nc1ccc2oc(=O)[nH]c2c1)C(=O)Nc1ccccc1C#N (centres undefined)	28
CC1=CC(=O)C=C(C)C1=NOS(=O)(=O)c1ccc(Cl)cc1	-1.74
CC(C)CC(N)C(=O)NS(=O)(=O)c1cccc(-c2cc3ncnc(N)c3s2)c1 (centres undefined)	43.5
O=C(N1CCCCC1)N1CCCCC1Cc1ccccc1 (centres undefined)	-79.6
Cc1ccc(CN2C(=O)NC3(CCN(C(=O)C(C)Oc4ccccc4)CC3)C2=O)cc1 (centres undefined)	-57.6

System: M. avium growth inhibition, 10 uM
Experiment: as above
Design: haemolysis: dose or concentration left out as unconfirmed
Settings: M. avium growth inhibition, 10 µM

SMILES	inhibition [%]
COc1ccc2c(c1)nc(-c1c[nH]c3ccc(N4CCSCC4)cc13)c1[nH]ccc12	3
N#Cc1cc(-c2cccc(Cl)c2)no1	0.349
NC(=O)C1CCN(c2nc(OCc3ccc(F)nc3)nc(N3CCn4c(nnc4C(F)(F)F)C3)n2)CC1	1.56
Cc1ccc(C)c(N2CCN(C(=O)C3CCN(c4ncnc5c4sc4ncccc45)CC3)CC2)c1	9.54
CCS(=O)(=O)c1ccc(CNc2nc3ccccc3cc2C#N)s1	-0.121
COc1cc2nc(Nc3cc(C)[nH]n3)nc(N3CC(N(C)C)C3)c2cc1OC	1.81
O=C(N/N=C/c1ccc2cccc(O)c2n1)c1ccncc1	-0.55
CC(C)c1cc(Nc2nc(N[C@@H](CO)C3CCCCC3)nc3[nH]ncc23)n[nH]1	0.54
O=C(CSc1nc(=O)[nH]c2c1CCC2)c1ccc(Cl)cc1	0.488
O=C(Nc1nnc2ccccn12)c1ccc2cccc(Cl)c2n1	-0.879
NC(=O)C1CCN(c2nc(OCc3ccc(F)nc3)nc(N3CCCOCC3)n2)CC1	0.922
COC(COc1cncc2nnc(-c3ccc(OC(F)F)cc3)n12)c1ccccc1 (centres undefined)	-0.713
O=C(Cc1ccc(C(F)(F)F)nc1)N1Cc2cccnc2C1	0.169
COc1cccc(C(=O)Nc2nc3cc(Cl)c(OC)cc3s2)c1	0.396
O=c1[nH]c(=O)c2cc(S(=O)(=O)Nc3cc(F)c(N4CCN(c5ccccn5)CC4)c(F)c3)ccc2[nH]1	1.7
Cn1nc(C(C)(C)C)cc1NC(=O)Nc1ccc(Cl)cc1	0.442
O=C(Nc1ccccc1)C(Cl)C(=O)c1ccccc1 (centres undefined)	1.66
CC(Nc1ccc2oc(=O)[nH]c2c1)C(=O)Nc1ccccc1C#N (centres undefined)	0.0692
CC1=CC(=O)C=C(C)C1=NOS(=O)(=O)c1ccc(Cl)cc1	-0.499
CC(C)CC(N)C(=O)NS(=O)(=O)c1cccc(-c2cc3ncnc(N)c3s2)c1 (centres undefined)	12
O=C(N1CCCCC1)N1CCCCC1Cc1ccccc1 (centres undefined)	0.89
Cc1ccc(CN2C(=O)NC3(CCN(C(=O)C(C)Oc4ccccc4)CC3)C2=O)cc1 (centres undefined)	-0.615

System: A. baumannii ATCC 17978 + PMBN growth inhibition, 100 uM
Experiment: as above
Design: haemolysis: dose or concentration left out as unconfirmed
Settings: A. baumannii plus PMBN growth inhibition, 100 µM; stronger effect = higher value

SMILES	inhibition [%]
COc1ccc2c(c1)nc(-c1c[nH]c3ccc(N4CCSCC4)cc13)c1[nH]ccc12	96.3
N#Cc1cc(-c2cccc(Cl)c2)no1	26.6
NC(=O)C1CCN(c2nc(OCc3ccc(F)nc3)nc(N3CCn4c(nnc4C(F)(F)F)C3)n2)CC1	11.7
Cc1ccc(C)c(N2CCN(C(=O)C3CCN(c4ncnc5c4sc4ncccc45)CC3)CC2)c1	5.07
CCS(=O)(=O)c1ccc(CNc2nc3ccccc3cc2C#N)s1	28.4
COc1cc2nc(Nc3cc(C)[nH]n3)nc(N3CC(N(C)C)C3)c2cc1OC	17.5
O=C(N/N=C/c1ccc2cccc(O)c2n1)c1ccncc1	37.1
CC(C)c1cc(Nc2nc(N[C@@H](CO)C3CCCCC3)nc3[nH]ncc23)n[nH]1	57.6
O=C(CSc1nc(=O)[nH]c2c1CCC2)c1ccc(Cl)cc1	10.9
O=C(Nc1nnc2ccccn12)c1ccc2cccc(Cl)c2n1	-14.2
NC(=O)C1CCN(c2nc(OCc3ccc(F)nc3)nc(N3CCCOCC3)n2)CC1	9.86
COC(COc1cncc2nnc(-c3ccc(OC(F)F)cc3)n12)c1ccccc1 (centres undefined)	-15.5
O=C(Cc1ccc(C(F)(F)F)nc1)N1Cc2cccnc2C1	22
COc1cccc(C(=O)Nc2nc3cc(Cl)c(OC)cc3s2)c1	19.1
O=c1[nH]c(=O)c2cc(S(=O)(=O)Nc3cc(F)c(N4CCN(c5ccccn5)CC4)c(F)c3)ccc2[nH]1	24
Cn1nc(C(C)(C)C)cc1NC(=O)Nc1ccc(Cl)cc1	83
O=C(Nc1ccccc1)C(Cl)C(=O)c1ccccc1 (centres undefined)	98.6
CC(Nc1ccc2oc(=O)[nH]c2c1)C(=O)Nc1ccccc1C#N (centres undefined)	14.5
CC1=CC(=O)C=C(C)C1=NOS(=O)(=O)c1ccc(Cl)cc1	-8.84
CC(C)CC(N)C(=O)NS(=O)(=O)c1cccc(-c2cc3ncnc(N)c3s2)c1 (centres undefined)	-8.7
O=C(N1CCCCC1)N1CCCCC1Cc1ccccc1 (centres undefined)	16.8
Cc1ccc(CN2C(=O)NC3(CCN(C(=O)C(C)Oc4ccccc4)CC3)C2=O)cc1 (centres undefined)	22.5

System: red blood cell haemolysis
Experiment: as above
Design: haemolysis: dose or concentration left out as unconfirmed
Settings: stronger effect = higher value; dose or concentration not given here

SMILES	haemolysis [%]
COc1ccc2c(c1)nc(-c1c[nH]c3ccc(N4CCSCC4)cc13)c1[nH]ccc12	1.04
N#Cc1cc(-c2cccc(Cl)c2)no1	6.05
NC(=O)C1CCN(c2nc(OCc3ccc(F)nc3)nc(N3CCn4c(nnc4C(F)(F)F)C3)n2)CC1	0.123
Cc1ccc(C)c(N2CCN(C(=O)C3CCN(c4ncnc5c4sc4ncccc45)CC3)CC2)c1	0.267
CCS(=O)(=O)c1ccc(CNc2nc3ccccc3cc2C#N)s1	0.247
COc1cc2nc(Nc3cc(C)[nH]n3)nc(N3CC(N(C)C)C3)c2cc1OC	0.198
O=C(N/N=C/c1ccc2cccc(O)c2n1)c1ccncc1	0.565
CC(C)c1cc(Nc2nc(N[C@@H](CO)C3CCCCC3)nc3[nH]ncc23)n[nH]1	1.61
O=C(CSc1nc(=O)[nH]c2c1CCC2)c1ccc(Cl)cc1	0.151
O=C(Nc1nnc2ccccn12)c1ccc2cccc(Cl)c2n1	2.79
NC(=O)C1CCN(c2nc(OCc3ccc(F)nc3)nc(N3CCCOCC3)n2)CC1	1.34
COC(COc1cncc2nnc(-c3ccc(OC(F)F)cc3)n12)c1ccccc1 (centres undefined)	-0.0885
O=C(Cc1ccc(C(F)(F)F)nc1)N1Cc2cccnc2C1	4.32
COc1cccc(C(=O)Nc2nc3cc(Cl)c(OC)cc3s2)c1	4.42
O=c1[nH]c(=O)c2cc(S(=O)(=O)Nc3cc(F)c(N4CCN(c5ccccn5)CC4)c(F)c3)ccc2[nH]1	0.458
Cn1nc(C(C)(C)C)cc1NC(=O)Nc1ccc(Cl)cc1	0.904
O=C(Nc1ccccc1)C(Cl)C(=O)c1ccccc1 (centres undefined)	-0.111
CC(Nc1ccc2oc(=O)[nH]c2c1)C(=O)Nc1ccccc1C#N (centres undefined)	0.275
CC1=CC(=O)C=C(C)C1=NOS(=O)(=O)c1ccc(Cl)cc1	0.0834
CC(C)CC(N)C(=O)NS(=O)(=O)c1cccc(-c2cc3ncnc(N)c3s2)c1 (centres undefined)	-0.408
O=C(N1CCCCC1)N1CCCCC1Cc1ccccc1 (centres undefined)	-0.191
Cc1ccc(CN2C(=O)NC3(CCN(C(=O)C(C)Oc4ccccc4)CC3)C2=O)cc1 (centres undefined)	-0.00857
